Experimental data taken from US20050003422A1, “Methods for assessing and treating cancer” (priority 2003, published 2005).

System: AML patients
Assay: Clinical response of relapsed or refractory AML patients treated with the FTI
Assay type: in vivo, human
Conditions: of a total of 199 evaluable AML patients; 600 mg b.i.d. oral, first 21 days of each 28 day cycle
Protocol: In the nonprophetic examples, AML patients were administered 600 mg of (R)-6-[amino(4-chlorophenyl)(1-methyl-1H-imidazol-5-yl)methyl]-4-(3-chlorophenyl)-1-methyl-2(1H)-quinolinone) (referred to as Zamestra™) at a starting oral dose of 600 mg b.i.d. for the first 21 days of each 28 day cycle in AML. Subjects were enrolled into two cohorts, those with relapsed AML and those with refractory AML. A total of […] patients (135 relapsed and 117 refractory) were treated.
Anti-leukemic activity is defined as any bone marrow blast count less than 5% or a reduction in bone marrow blasts by at least half.
The average value of the site and DCL blast count measurements were calculated and a Student's t-test was performed to investigate if blast counts correlated with patient response in the AML patients. […] Chi-squared analysis for all evaluable patients also found a significant correlation between high blast counts and resistance to treatment (Ω^2=9.53).

Cn1cncc1[C@@](N)(c1ccc(Cl)cc1)c1ccc2c(c1)c(-c1cccc(Cl)c1)cc(=O)n2C [Zamestra]
evaluable patients who had a CR, CRp, PR, or SD: 24
